This is an account of results in patent US4136163A, “P-Menthane carboxamides having a physiological cooling effect” (Wilkinson Sword Limited, priority 1971, dated 1979).

In one assay the test system is cold receptors. As to the kind of experiment: Threshold test: minimum quantity of compound on filter paper square on tongue giving a noticeable cooling effect, selected panel of 6 people. It counts as in vivo, human. Particulars: panel of 6 people, cooling reported 50% of the time. An excerpt:
For example, a controlling factor in the onset of cooling effect, its intensity and longevity will be the rate of penetration of the compounds through the epidermis and this will vary in different locations on the human body.
It will also benoted that the described test procedure is done on a statistical basis. This is necessary since sensitivity to these compounds will vary not only from compound to compound and from one part of the body to another, but also from one individual to another. Tests of this nature are commonly used in the testing of the organoleptic properties, e.g. taste, smell etc. of organic and inorganic compounds, see Kirk-Othmer: Encyclopedia of Chemical Technology, 2nd. Ed.
The following test procedure is aimed at determining the minimum quantity of the test compound required to produce a noticeable cooling effect on a person of average sensitivity, this minimum quantity being termed the threshold for that particular compound. The tests are carried out on a selected panel of 6 people of median sensitivity to 1-menthol.
To select a test panel of average sensitivity the following procedure is used. Known quantities of 1-menthol in solution in petroleum ether (bp.40-60) are placed on 5 mm. squares of filter paper, whereafter the solvent is allowed to evaporate. A panel of observers is enrolled and asked to place one impregnated square at a time on the tongue and to report on the presence or absence of a cooling effect. […] Conveniently, one starts with squares containing 2.0 μg. 1-menthol, the amount on each successive square being half that of the preceding square, i.e. the second test square will contain 1.0 μg, the third 0.5 μg and so on. Each quantity is tested on the tongue at least 10 times. In this way, the thresholds to cold receptor stimulus by 1-menthol are determined for each individual of the panel, the threshold for each individual being that amount of 1-menthol for which, in a series of not less than 10 test applications, a cooling effect is reported 50% of the time.
To test the activity of compounds according to this invention, the above procedure is repeated using only the 6 selected panel members of average sensitivity to 1-menthol. The individual thresholds for each test compound on each of the 6 selected panel members are determined and averaged. Those compounds whose average threshold on the select test panel is 100 μg or less are regarded as having cooling activity in accordance with this invention.
On to `CC1CCC(C(C)C)C(C(=O)NC(C)(C)C)C1` (stereo not drawn) [H, --C4 H9 (tert.)], for which the “Threshold (average minimum quantity to produce a noticeable cooling effect)” value stood at 0.4 µg.

On to `CCN(CC)C(=O)C1CC(C)CCC1C(C)C` (stereo not drawn) [--C2 H5, --C2 H5], for which the “Threshold (average minimum quantity to produce a noticeable cooling effect)” value came to 3 µg.

With `CC1CCC(C(C)C)C(C(=O)NC(C)C)C1` (stereo not drawn) [H, --C3 H7 (iso)], the “Threshold (average minimum quantity to produce a noticeable cooling effect)” value was determined as 0.5 µg.

Consider `Cc1ccc(NC(=O)C2CC(C)CCC2C(C)C)cc1O` (stereo not drawn) [H, --C6 H3 Me(p)OH(m)], for which the “Threshold (average minimum quantity to produce a noticeable cooling effect)” value came to 0.1 µg.

Take `Cc1ccc(NC(=O)C2CC(C)CCC2C(C)C)cc1C` (stereo not drawn) [H, --C6 H3 Me2 (m,p)]: the “Threshold (average minimum quantity to produce a noticeable cooling effect)” value was 0.1 µg. The same measure, in the same setting: for `CCOC(=O)CNC(=O)C1CC(C)CCC1C(C)C` (stereo not drawn) [H, --CH2 COOC2 H5] the value was 0.2 µg; for `Cc1ccc(NC(=O)C2CC(C)CCC2C(C)C)cc1` (stereo not drawn) [H, --C6 H4 Me(p)], 0.3 µg; for `CC(C)CNC(=O)C1CC(C)CCC1C(C)C` (stereo not drawn) [H, --C4 H9 (iso)], 0.9 µg.

Consider `CCOC(=O)C(C)NC(=O)C1CC(C)CCC1C(C)C` (stereo not drawn) [H, --CH(CH3)COOC2 H5], for which the “Threshold (average minimum quantity to produce a noticeable cooling effect)” value was found to be 0.4 µg. `CC1CCC(C(C)C)C(C(=O)NCc2ccccc2)C1` (stereo not drawn) [H, --CH2 Ph]: the “Threshold (average minimum quantity to produce a noticeable cooling effect)” value came to 10 µg.

In the case of `CC1CCC(C(C)C)C(C(=O)N2CCCCC2)C1` (stereo not drawn) [--(CH2)5 --], the “Threshold (average minimum quantity to produce a noticeable cooling effect)” value worked out at 6 µg. The same measure, in the same setting: under `CC1CCC(C(C)C)C(C(=O)NCCN)C1` (stereo not drawn) [H, --CH2 CH2 NH2] stands 20 µg; under `CC1CCC(C(C)C)C(C(=O)NC2CCCCC2)C1` (stereo not drawn) [H, --C6 H11 (cyclo)], 1 µg.

Take `CC1CCC(C(C)C)N(C(=O)C2CC(C)CCC2C(C)C)CC1` (stereo not drawn) [--CH(iso-C3 H7)CH2 CH2 CH(CH3)CH2 CH2 --]: the “Threshold (average minimum quantity to produce a noticeable cooling effect)” value is 50 µg. On the same count and under the same terms, under `CCCCCNC(=O)C1CC(C)CCC1C(C)C` (stereo not drawn) [H, --C5 H11 (n)] stands 3 µg; under `CC1CCC(C(C)C)C(C(=O)NCO)C1` (stereo not drawn) [H, --CH2 OH], 12 µg. Still for that read-out and setting: under `CC1CCC(C(C)C)C(C(=O)NCC2CCCCCC2)C1` (stereo not drawn) [H, --CH2 (C7 H13 (cyclo)] stands 20 µg; under `CCOC(=O)CN(C)C(=O)C1CC(C)CCC1C(C)C` (stereo not drawn) [--CH3, --CH2 CO2 C2 H5], 0.8 µg. Still for that read-out and setting: under `CC1CCC(C(C)C)C(C(=O)NO)C1` (stereo not drawn) [H, --OH] stands 11 µg; under `CC1CCC(C(C)C)C(C(=O)Nc2ccccc2O)C1` (stereo not drawn) [H, --C6 H4 OH(o)], 0.5 µg; under `CCC(C)NC(=O)C1CC(C)CCC1C(C)C` (stereo not drawn) [H, --C4 H9 (sec)], 0.7 µg. Take `CC1CCC(C(C)C)C(C(=O)Nc2ccc([N+](=O)[O-])cc2)C1` (stereo not drawn) [H, --C6 H4 NO2 (p)]: the “Threshold (average minimum quantity to produce a noticeable cooling effect)” value worked out at 0.3 µg. In the case of `CC1CCC(C(C)C)C(C(=O)NC2CCCC2)C1` (stereo not drawn) [H, --C5 H9 (cyclo)], the “Threshold (average minimum quantity to produce a noticeable cooling effect)” value is 0.5 µg. Regarding `COc1ccc(NC(=O)C2CC(C)CCC2C(C)C)cc1` (stereo not drawn) [H, --C6 H4 OMe(p)], the “Threshold (average minimum quantity to produce a noticeable cooling effect)” value was 0.1 µg. Still for that read-out and setting: under `CCOC(=O)CCNC(=O)C1CC(C)CCC1C(C)C` (stereo not drawn) [H, --CH2 CH2 COOC2 H5] stands 1.5 µg; under `CC1CCC(C(C)C)C(C(=O)NC2CC2)C1` (stereo not drawn) [H, --C3 H5 (cyclo)], 0.5 µg.

Still in this assay, the particulars now being: panel selection criterion, six members.
In the case of `CC1CCC(C(C)C)C(O)C1` (stereo not drawn) [1-menthol, reference compound], the “average threshold to 1-menthol of selected panel” value is listed as “approximately 0.25 μg”.
